# Article PMC7577125 (Antimicrobial Agents and Chemotherapy, 2020)
# Read-outs that look alike come from different tables or passages of the source.
# Key:
# [1] = test system: NrtI^R HBV (rtL180M/M204V); test: microbe, parasite or virus in culture; type: cell-based, Hepatitis B virus
# [2] = human, rat, cynomolgus monkey
# Method: In vitro intrinsic clearance (CLint) was determined as follows. […] The calculated CLint was determined from the relationship CLint = k × (volume of incubation in ml/mg microsomal protein) × (mg protein in liver/g liver weight) × (g liver weight/kg body weight). The values for liver weights, body weights, as well as hepatic blood flows (QH) across species were obtained from data reported previously by Davies and Morris ([28]). Values for liver microsome protein/liver weight for mouse, rat, dog, and monkey were […] ([27]), and that for human was 33 mg/g. The calculation used for the prediction of hepatic clearance (CLpred) is CLpred = (QH × CLint)/(QH + CLint).
# in vitro [3] = settings: mouse, plasma
# HBV genotype B = test: microbe, parasite or virus in culture; type: cell-based; settings: Hepatitis B virus, read-out: Mean antiviral EC50
# in vitro [4] = settings: rat, hepatocytes
# HBV capsid DNA = test: Incoming capsid assay in PHH cells; type: cell-based; settings: Hepatitis B virus, 3 h, read-out: Capsid DNA % of Control
# HBV cccDNA = test: cccDNA formation assay in infected PHH cells (Southern blot); type: cell-based; settings: Hepatitis B virus, 96 h, 4 days, read-out: cccDNA % of Control
# HBV cell culture models = settings: concentrations of up to 10 μM
# CYP2B6 = target: T1, CYP2B6 (Homo sapiens, UniProt P20813); test: CYP inhibition in human liver microsomes, 2B6; type: in vitro ADME; settings: 0.1–100 μM
# T1 construct: in human liver microsomes; from tissue; host or cells: human liver microsomes
# CYP2C8 = CYP2C8 (Homo sapiens, UniProt P10632); test: biochemical
# Sequence of CYP2C8 (P10632 whole entry): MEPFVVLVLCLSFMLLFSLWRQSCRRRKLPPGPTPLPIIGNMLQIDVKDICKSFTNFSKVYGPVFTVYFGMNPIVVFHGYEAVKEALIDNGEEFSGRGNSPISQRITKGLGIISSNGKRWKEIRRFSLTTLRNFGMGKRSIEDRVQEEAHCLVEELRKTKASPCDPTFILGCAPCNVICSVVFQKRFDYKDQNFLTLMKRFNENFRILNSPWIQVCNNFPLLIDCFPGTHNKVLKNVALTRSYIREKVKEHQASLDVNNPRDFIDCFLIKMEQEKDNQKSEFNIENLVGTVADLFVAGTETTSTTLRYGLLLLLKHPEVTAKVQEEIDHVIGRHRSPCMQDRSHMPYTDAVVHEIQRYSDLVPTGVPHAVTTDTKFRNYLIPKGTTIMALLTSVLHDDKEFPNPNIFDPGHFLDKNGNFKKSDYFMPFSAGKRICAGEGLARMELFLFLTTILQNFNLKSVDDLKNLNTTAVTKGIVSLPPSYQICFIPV
# T1 sequence (P20813 whole entry): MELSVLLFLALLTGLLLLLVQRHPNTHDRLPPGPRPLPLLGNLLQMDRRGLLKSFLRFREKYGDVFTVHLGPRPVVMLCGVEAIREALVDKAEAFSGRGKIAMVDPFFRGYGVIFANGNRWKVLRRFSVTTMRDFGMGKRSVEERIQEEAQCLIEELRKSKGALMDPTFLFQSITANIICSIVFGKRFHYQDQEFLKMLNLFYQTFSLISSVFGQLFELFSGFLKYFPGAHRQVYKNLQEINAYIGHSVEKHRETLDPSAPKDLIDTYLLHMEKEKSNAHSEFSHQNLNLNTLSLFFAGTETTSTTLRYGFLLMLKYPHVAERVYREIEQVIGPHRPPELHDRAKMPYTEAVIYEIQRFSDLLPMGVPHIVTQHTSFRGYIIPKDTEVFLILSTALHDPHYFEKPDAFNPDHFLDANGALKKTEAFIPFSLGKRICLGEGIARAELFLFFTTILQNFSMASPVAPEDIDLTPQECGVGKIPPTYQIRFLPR
compound,measurement,setting,value
O=C(NCc1cnc(C(F)(F)F)s1)c1ccc2c(c1)NC(=O)c1ccccc1S2(=O)=O [ABI-H0731],Fold shift,[1]; HepG2-NrtI^R versus HepAD38 (wild type),1.2 fold
same,EC50,"[1]; Hepatitis B virus, 96 h, read-out: Mean EC50",262 ± 97 nM
same,CLpred as % of liver blood flow,"[2]; mouse, 0.5 μM",12-21%
same,CLpred,[2]; 1 μM,2.3 to 21 mL/min/kg
same,CLpred as % of liver blood flow,[2]; 1 μM,11-32%
same,fraction unbound at 6 h,in vitro [3],0.03 to 0.034
same,EC50,HBV genotype B,85.5 ± 10.9 nM
same,half-life at 1 μM,in vitro [4],105 min
same,activity at […],HBV capsid DNA; 0.37 μM,71%
same,activity at 1.11 µM,HBV capsid DNA; 1.11 μM,60%
same,activity at 3.33 µM,HBV capsid DNA; 3.33 μM,32%
same,activity at 10 µM,HBV capsid DNA; 10.0 μM,9%
same,activity at […],HBV cccDNA; 0.37 μM,90%
same,activity at 1.11 µM,HBV cccDNA; 1.11 μM,80%
same,activity at 3.33 µM,HBV cccDNA; 3.33 μM,56%
same,activity at 10 µM,HBV cccDNA; 10.0 μM,15%
same,cytotoxicity,HBV cell culture models,No cytotoxicity was observed
same,IC50,CYP2B6,27.7 µM
same,IC50,CYP2C8,27.2 µM
